Data as given in ChEMBL document CHEMBL1201862, “PubChem BioAssay data set” (2004).
The source made the active and inactive calls.

Experiments:
Escherichia coli = assay: microbe, parasite or virus in culture
Leucine aminopeptidase = target: T1, Leucine aminopeptidase (Plasmodium falciparum 3D7, UniProt Q8IL11); assay: P. falciparum M17LAP inhibitors, primary screen, biochemical, fluorogenic H-Leu-NHMec substrate, 1536-well (AID 1619); type: functional
T1 sequence (Q8IL11 whole entry): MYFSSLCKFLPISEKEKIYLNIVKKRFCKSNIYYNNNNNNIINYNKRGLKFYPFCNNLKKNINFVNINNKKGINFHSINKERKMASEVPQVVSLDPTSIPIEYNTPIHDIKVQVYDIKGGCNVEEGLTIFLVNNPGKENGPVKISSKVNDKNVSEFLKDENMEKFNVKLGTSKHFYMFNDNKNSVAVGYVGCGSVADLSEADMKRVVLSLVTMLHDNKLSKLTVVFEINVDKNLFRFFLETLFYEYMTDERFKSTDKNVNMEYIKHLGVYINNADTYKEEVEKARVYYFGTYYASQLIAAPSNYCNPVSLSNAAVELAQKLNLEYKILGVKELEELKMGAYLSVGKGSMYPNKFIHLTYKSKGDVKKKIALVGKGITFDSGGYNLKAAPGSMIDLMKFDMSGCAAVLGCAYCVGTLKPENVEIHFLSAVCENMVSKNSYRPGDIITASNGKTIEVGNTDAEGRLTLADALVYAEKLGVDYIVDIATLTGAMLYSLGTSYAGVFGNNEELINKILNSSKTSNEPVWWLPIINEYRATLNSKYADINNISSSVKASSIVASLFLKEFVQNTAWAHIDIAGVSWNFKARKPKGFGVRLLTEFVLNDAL

Aminopeptidase N = target: T2, Aminopeptidase N (Plasmodium falciparum FcB1/Columbia, UniProt O96935); assay: malaria alanyl aminopeptidase activity blockers – biochemical, fluorogenic H-Leu-NHMec substrate, 1536-well (AID 1445); parameters: species or system Plasmodium falciparum 3D7, 3D7
T2 sequence (O96935 whole entry): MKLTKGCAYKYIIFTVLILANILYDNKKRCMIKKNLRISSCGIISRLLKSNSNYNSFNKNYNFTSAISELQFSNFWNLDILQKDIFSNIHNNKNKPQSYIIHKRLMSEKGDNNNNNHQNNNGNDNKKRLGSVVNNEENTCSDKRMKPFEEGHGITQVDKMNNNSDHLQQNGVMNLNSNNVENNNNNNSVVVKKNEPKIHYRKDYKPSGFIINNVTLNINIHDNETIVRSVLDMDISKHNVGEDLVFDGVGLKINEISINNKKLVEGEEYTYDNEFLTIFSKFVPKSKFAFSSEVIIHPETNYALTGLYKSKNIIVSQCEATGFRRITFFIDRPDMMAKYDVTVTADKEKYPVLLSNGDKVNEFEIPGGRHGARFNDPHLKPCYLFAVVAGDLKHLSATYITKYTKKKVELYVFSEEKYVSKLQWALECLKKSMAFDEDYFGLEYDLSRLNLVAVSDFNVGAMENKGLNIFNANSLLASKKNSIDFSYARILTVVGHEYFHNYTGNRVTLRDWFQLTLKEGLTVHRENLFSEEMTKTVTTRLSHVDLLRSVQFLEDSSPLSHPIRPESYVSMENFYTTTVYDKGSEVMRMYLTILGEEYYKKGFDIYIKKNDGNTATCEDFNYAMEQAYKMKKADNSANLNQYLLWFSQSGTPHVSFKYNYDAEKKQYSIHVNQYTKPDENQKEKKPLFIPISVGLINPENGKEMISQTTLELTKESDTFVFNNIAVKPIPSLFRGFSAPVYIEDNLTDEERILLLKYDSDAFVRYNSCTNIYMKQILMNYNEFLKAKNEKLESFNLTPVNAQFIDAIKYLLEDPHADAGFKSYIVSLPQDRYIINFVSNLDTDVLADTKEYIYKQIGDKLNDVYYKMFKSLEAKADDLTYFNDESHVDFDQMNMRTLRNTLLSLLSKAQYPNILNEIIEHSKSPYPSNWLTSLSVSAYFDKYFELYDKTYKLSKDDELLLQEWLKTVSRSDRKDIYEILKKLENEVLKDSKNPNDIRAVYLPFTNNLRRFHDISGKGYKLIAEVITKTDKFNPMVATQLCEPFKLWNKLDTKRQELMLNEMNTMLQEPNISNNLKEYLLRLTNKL

[1] = target: Voltage-dependent T-type calcium channel subunit alpha-1H (Homo sapiens, UniProt O95180); type: functional;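 note: channel activity triggered by adding a high calcium stimulation buffer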
[2] = target: T3, Short transient receptor potential channel 4 (Mus musculus, UniProt Q9QUQ5); assay: block of DAMGO-driven TRPC4 calcium entry – cell-based, HEK293 TRPC4/mu-opioid, Fluo-4 calcium, dose response (AID 434942); type: functional;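 note: potency of inhibitors blocking the TRPC4 calcium response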
T3 sequence (Q9QUQ5 whole entry): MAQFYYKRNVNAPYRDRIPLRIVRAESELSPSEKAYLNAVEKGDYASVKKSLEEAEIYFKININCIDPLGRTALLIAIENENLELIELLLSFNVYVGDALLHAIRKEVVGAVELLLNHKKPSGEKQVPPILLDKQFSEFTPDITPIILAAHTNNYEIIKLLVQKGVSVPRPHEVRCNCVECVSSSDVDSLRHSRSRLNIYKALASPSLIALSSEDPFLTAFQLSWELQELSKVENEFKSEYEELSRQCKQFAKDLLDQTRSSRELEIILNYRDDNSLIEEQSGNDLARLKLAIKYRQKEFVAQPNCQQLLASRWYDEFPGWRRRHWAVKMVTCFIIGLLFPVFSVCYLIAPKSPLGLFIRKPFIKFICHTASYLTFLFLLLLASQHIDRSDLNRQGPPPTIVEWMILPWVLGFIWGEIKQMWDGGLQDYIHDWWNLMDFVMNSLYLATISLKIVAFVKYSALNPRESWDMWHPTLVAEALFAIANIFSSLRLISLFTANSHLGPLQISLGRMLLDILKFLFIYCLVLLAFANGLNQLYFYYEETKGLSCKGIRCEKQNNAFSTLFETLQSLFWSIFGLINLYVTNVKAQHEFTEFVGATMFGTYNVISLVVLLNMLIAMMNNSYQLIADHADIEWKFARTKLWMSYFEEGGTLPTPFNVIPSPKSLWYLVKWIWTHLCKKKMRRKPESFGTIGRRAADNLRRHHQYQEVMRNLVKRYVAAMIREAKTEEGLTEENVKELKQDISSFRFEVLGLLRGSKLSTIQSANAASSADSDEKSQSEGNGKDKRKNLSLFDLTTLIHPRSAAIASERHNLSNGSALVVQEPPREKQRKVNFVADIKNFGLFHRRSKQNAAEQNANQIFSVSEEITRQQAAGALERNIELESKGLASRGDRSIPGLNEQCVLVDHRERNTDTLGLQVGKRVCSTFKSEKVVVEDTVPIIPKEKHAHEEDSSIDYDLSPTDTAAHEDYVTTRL

HEK293 [3] = assay: cells; type: functional, cell-based; details: Homo sapiens
HEK293 [4] = assay: cells; type: functional, cell-based; details: Homo sapiens; remark: listed apart in the source
HEK293 [5] = assay: cells; type: functional, cell-based; details: Homo sapiens; remark: listed apart in the source
HEK293 [6] = assay: inhibition of NOD1-driven NF-kB reporter – cell-based, luminescence, uHTS, primary screen (AID 1578); type: functional; details: Homo sapiens
[7] = HEK-293T viability loss after treatment – luminescence, T-cell screen hits, cytotoxicity control for TCR NF-kB inhibitor project, dose response (AID 489026); type: functional, cell-based;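 note: cells exposed to compound about 14 hours before the viability readout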
[8] = target: Nucleotide-binding oligomerization domain-containing protein 2 (Homo sapiens, UniProt Q9HC29); assay: inhibition of NOD2-driven NF-kB reporter – cell-based, luminescence, uHTS, HEK293 (AID 1566); type: functional
[9] = loss of viability in HepG2 cells – cell-based, CellTiter-Glo, cherry-picked, cytotoxicity control for Shn3 inhibitor project, dose response (AID 624134); type: functional
[10] = reduction of Shn3 3'UTR-driven luciferase in osteoblasts – cell-based, Clone20 osteoblasts, firefly luciferase, cherry-picked, dose response (AID 624132); type: functional;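 note: firefly luciferase luminescence from reporter carrying the Shn3 3'UTR in osteoblasts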
HEK293 [11] = assay: NOD2 signaling inhibitors in MDP-stimulated cells, cell-based, uHTS, luminescence (AID 2001); type: functional; details: Homo sapiens
INS1 = assay: INS-1E survival protection against cytokine death – cell-based, luminescence, retest, dose response (AID 449756); type: functional; details: Rattus norvegicus;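 note: cell death triggered by IL-1 beta plus TNF-alpha plus IFN-gamma mixture; protective hits raise ATP signal compared with cytokine alone wells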
[12] = target: T4, Alkaline phosphatase, tissue-nonspecific isozyme (Homo sapiens, UniProt P05186); assay: potency against alkaline phosphatase TNAP – biochemical, luminescent, dose response, SAR follow-up (AID 1056)
T4 sequence (P05186 whole entry): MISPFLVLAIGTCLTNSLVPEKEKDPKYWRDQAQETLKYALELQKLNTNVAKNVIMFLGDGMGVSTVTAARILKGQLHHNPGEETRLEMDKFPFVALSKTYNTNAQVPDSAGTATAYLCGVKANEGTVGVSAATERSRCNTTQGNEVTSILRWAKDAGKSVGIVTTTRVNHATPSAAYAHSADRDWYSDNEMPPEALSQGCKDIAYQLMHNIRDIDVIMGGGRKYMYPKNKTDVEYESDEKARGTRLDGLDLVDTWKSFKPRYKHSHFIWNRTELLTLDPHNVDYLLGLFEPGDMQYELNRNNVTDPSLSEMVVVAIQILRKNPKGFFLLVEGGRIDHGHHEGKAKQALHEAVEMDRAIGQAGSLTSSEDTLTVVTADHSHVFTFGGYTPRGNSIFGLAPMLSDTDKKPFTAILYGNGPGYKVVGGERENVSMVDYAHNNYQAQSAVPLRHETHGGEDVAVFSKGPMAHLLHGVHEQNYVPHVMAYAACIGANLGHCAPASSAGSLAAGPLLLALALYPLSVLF

[13] = target: Alkaline phosphatase, placental type (Homo sapiens, UniProt P05187); assay: human placental alkaline phosphatase inhibition – biochemical, luminescence, confirmation (AID 1512); type: functional
[14] = target: T5, Polyadenylate-binding protein 1 (Homo sapiens, UniProt P11940); assay: MLLE domain peptide-binding blockers, IC50 – biochemical, fluorescence polarization, FITC-PAM2 peptide, dose response (AID 602259); type: functional; details: read-out: IC50_Mean
[15] = target: T5, Polyadenylate-binding protein 1; assay: MLLE binding blockers, Cy5 peptide tracer – biochemical, fluorescence polarization, Cy5-PAM2 peptide, secondary, miRNA deadenylation inhibitor project, dose response (AID 602260); type: functional; details: read-out: IC50_Mean
[16] = HEK-293T cell viability reduction – luminescence, B-cell screen hits, cytotoxicity control for BCR NF-kB inhibitor project, dose response (AID 489021); type: functional, cell-based;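 note: HEK-293T cells carrying an NF-kB luciferase reporter; cells exposed to compound for about 14 hours before viability readout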
Vero = assay: cells; type: functional, cell-based; details: Chlorocebus sabaeus

Voltage-dependent T-type calcium channel subunit alpha-1H, sequence (O95180 whole entry): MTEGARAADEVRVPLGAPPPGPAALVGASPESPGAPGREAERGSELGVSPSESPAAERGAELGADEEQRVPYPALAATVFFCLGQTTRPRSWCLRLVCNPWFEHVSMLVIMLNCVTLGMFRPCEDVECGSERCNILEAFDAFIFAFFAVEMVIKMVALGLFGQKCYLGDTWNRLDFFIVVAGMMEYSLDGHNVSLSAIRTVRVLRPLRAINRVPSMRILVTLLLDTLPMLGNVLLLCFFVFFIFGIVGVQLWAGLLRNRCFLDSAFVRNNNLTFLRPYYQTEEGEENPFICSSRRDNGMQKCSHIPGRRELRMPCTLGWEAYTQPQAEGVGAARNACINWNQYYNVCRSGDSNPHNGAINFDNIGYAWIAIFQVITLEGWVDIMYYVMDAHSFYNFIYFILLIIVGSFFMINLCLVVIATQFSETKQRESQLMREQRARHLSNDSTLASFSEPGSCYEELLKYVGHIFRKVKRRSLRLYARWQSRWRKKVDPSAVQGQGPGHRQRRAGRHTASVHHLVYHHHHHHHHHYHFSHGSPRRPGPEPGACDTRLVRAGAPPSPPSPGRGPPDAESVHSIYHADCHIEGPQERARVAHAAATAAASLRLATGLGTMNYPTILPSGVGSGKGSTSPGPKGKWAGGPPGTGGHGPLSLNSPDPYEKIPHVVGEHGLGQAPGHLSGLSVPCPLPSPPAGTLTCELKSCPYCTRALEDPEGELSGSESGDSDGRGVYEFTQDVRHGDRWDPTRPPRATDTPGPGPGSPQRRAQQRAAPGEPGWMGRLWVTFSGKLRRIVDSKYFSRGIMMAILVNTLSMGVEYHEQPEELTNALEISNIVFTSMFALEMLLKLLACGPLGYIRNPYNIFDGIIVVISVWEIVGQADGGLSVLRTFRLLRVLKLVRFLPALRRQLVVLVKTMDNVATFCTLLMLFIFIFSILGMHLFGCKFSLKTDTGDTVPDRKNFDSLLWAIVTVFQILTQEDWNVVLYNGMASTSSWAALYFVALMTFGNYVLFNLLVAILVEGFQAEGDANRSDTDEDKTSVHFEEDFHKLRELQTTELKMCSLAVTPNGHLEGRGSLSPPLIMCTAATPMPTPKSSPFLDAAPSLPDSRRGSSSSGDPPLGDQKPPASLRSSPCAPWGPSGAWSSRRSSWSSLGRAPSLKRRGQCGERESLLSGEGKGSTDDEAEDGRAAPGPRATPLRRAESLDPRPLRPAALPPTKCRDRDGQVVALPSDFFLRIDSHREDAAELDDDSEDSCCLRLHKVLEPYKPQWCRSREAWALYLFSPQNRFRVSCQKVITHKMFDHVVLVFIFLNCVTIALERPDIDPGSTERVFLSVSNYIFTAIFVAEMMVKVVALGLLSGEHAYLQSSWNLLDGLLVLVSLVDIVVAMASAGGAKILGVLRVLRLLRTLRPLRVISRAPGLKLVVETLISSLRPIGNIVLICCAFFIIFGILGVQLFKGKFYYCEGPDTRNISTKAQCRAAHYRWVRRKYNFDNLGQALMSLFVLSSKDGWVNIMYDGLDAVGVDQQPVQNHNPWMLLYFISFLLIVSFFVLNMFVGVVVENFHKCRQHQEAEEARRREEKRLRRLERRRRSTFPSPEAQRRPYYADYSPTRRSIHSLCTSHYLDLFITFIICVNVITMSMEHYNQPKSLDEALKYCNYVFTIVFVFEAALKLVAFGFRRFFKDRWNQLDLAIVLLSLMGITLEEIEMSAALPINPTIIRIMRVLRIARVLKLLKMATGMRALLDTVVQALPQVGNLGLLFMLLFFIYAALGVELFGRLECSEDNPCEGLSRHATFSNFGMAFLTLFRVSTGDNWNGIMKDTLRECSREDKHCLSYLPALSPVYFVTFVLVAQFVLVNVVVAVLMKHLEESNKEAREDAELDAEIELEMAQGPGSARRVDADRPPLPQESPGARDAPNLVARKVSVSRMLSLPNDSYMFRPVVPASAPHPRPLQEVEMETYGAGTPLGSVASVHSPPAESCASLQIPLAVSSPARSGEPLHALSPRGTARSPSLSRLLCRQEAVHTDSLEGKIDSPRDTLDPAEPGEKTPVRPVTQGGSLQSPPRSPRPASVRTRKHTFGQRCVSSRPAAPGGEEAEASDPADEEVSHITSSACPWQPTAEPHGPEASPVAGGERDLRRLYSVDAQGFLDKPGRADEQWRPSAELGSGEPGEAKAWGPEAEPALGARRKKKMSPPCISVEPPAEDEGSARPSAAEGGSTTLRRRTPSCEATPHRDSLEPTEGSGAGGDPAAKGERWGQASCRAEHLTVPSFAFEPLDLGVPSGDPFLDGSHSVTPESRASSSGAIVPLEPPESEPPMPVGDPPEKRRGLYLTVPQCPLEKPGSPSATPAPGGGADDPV
Alkaline phosphatase, placental type, sequence (P05187 whole entry, the tested form may be a part): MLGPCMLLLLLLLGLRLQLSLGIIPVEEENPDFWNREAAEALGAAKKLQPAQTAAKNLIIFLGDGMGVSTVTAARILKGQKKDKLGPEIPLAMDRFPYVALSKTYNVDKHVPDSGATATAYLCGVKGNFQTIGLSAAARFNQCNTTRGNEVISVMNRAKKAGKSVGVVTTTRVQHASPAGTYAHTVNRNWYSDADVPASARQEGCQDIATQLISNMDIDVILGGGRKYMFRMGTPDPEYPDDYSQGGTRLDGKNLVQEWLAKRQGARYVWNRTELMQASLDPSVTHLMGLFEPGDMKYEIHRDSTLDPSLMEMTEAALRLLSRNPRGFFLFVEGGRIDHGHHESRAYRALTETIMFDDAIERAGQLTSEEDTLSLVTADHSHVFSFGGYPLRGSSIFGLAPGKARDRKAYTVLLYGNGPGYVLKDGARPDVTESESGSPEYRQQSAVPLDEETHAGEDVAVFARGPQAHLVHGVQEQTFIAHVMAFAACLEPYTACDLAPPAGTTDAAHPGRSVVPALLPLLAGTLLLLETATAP
T5 sequence (P11940 whole entry, the tested form may be a part): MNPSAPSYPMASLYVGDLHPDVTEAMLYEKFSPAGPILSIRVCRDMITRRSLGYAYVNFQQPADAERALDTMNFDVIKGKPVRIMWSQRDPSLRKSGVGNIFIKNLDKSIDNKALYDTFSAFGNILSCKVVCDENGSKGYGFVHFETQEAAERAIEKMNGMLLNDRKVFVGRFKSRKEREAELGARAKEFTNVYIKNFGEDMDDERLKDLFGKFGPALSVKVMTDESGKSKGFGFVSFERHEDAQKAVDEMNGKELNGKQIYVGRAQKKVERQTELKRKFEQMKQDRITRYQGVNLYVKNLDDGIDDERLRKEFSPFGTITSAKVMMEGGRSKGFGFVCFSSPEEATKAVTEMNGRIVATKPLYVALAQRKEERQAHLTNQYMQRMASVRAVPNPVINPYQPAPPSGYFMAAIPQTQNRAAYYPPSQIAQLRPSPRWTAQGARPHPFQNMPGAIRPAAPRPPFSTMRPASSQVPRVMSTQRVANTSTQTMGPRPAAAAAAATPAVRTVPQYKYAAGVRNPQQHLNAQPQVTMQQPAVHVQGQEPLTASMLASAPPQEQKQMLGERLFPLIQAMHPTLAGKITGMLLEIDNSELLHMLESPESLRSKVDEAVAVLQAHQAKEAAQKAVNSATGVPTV
Nucleotide-binding oligomerization domain-containing protein 2, sequence (Q9HC29 whole entry, the tested form may be a part): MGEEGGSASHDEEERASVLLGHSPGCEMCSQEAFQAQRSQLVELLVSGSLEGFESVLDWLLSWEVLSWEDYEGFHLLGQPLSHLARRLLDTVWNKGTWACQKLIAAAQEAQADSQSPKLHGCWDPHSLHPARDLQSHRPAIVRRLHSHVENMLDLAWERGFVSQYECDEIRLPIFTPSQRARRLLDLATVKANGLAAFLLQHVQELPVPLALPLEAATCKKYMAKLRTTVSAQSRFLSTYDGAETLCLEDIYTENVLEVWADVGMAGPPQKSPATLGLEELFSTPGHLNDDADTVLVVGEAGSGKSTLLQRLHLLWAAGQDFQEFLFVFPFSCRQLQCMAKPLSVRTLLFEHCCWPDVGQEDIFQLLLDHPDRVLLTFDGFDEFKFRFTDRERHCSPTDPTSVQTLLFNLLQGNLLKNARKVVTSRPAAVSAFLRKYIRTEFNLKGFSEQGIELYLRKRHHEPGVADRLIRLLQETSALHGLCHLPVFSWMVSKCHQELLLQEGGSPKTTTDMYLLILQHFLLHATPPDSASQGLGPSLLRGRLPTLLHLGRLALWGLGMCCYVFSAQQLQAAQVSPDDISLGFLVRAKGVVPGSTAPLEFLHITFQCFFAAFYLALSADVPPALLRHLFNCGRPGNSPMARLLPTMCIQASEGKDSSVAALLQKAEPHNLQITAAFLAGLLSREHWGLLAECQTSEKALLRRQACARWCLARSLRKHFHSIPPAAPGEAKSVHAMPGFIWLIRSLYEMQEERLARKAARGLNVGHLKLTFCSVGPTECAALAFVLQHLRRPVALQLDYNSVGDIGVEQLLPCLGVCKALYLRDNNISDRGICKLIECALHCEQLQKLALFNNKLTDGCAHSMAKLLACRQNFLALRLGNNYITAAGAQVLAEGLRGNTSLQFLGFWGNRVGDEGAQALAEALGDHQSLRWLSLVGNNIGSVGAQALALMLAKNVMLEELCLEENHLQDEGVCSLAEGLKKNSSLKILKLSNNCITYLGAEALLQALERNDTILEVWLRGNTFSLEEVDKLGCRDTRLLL

COCCN(C(S)=Nc1c(C)cc(C)cc1C)C(C)c1cccnc1 (stereo not given)
AC50 (Escherichia coli): 57.7 µM (active)

COc1cc(NC(=O)CSc2ncnc3scc(-c4ccccc4)c23)c(C(=O)O)cc1OC
IC50 (Leucine aminopeptidase): < 1 µM (active) | IC50 (Aminopeptidase N): 40.1 µM (active)

CC(C)(C)n1nnnc1CN(Cc1ccc(F)cc1)Cc1ccco1
EC50 [1]: 6.27 µM (active)

O=C(CCCSc1nc2ccccc2[nH]1)NCc1ccccc1Cl
EC50 [2]: 3.76 µM (active)

CN1CCN(c2nc3c(c(=O)n(C)c(=O)n3C)n2CC(=O)C23CC4CC(CC(C4)C2)C3)CC1
EC50 [2]: 2.11 µM (active)

COc1ccc(NS(=O)(=O)c2ccc(-c3cnc(C4CC4)o3)cc2)cc1OC
IC50 (HEK293 [3]): 18.4 µM (active) | IC50 (HEK293 [4]): 6.05 µM (active) | IC50 (HEK293 [5]): > 20 µM (inactive) | EC50 (HEK293 [6]): 2.04 µM (active) | IC50 [7]: > 80 µM (inactive) | EC50 [8]: 14.4 µM (active) | AC50 [9]: 2.32 µM (active) | AC50 [10]: 1.33 µM (active) | IC50 (HEK293 [11]): 6.25 µM (active) | AC50 (INS1): 3.52 µM (active)

O=C(COC(=O)CCc1ccc(S(=O)(=O)N2CCCCC2)cc1)Nc1ccc2c(c1)OCO2
EC50 [1]: 26.4 µM (active)

CN1CCN(Cc2nc3ccccc3c(=O)n2Cc2nc(-c3cccc([N+](=O)[O-])c3)cs2)CC1
IC50 (Aminopeptidase N): 79.7 µM (active)

O=C(CSc1nc2ccccc2o1)c1ccc(O)c(O)c1
IC50 [12]: 4.15 µM (active) | IC50 [13]: 3.06 µM (active)

CCOC(=O)C1(c2ccccc2)CCN(CC(=O)Nc2ccc(C)cc2)CC1
EC50 [2]: 2.99 µM (active)

Cc1cccc(-c2nc(C[S+]([O-])CC(=O)NCCCSC3CCCCC3)c(C)o2)c1 (stereo not given)
EC50 [1]: 3.94 µM (active)

O=C(NC1CCN(C(=O)NCc2ccccc2)CC1)c1ccco1
IC50 (Aminopeptidase N): 93.2 µM (active)

COc1ccc(S(=O)(=O)N2CCN(c3ccc(C)cc3C)CC2)cc1OC
EC50 [1]: 9.63 µM (active)

Cc1cc2cc(CNC(=O)c3ccc(Br)o3)ccc2[nH]1
EC50 [1]: 10.1 µM (active) | IC50 [14]: 49.6 µM (inactive) | IC50 [15]: 45.1 µM (inactive)

CC(C)(C)n1nnnc1C(c1cc2cc3c(cc2nc1O)OCCO3)N1CCSCC1 (stereo not given)
AC50 (Escherichia coli): 28.6 µM (active)

O=C(Cn1cnc2ccccc21)c1ccc(O)c(O)c1
IC50 [12]: 14 µM (active)

NS(=O)(=O)c1ccc(NC(=O)CSc2nnc(-c3ccc(O)cc3)o2)cc1
AC50 (Escherichia coli): 127 µM (active)

COc1cc(/C(C)=N\NC(N)=S)cc(OC)c1OC
IC50 [16]: > 80 µM (inactive)

COc1ccc(-c2nnc(SCC(=O)c3ccc(O)c(O)c3)n2-c2ccccc2)cc1
IC50 [12]: > 100 µM (inactive) | IC50 [13]: 7.22 µM (active)

Cc1ccc2c(Cl)cc(Cl)c(O)c2n1 [CHLORQUINALDOL]
AC50 (Escherichia coli): 54.3 µM (active) | IC50 (Vero): > 25 µM (active)
